Source: US5120752A, “Cyclopropyl derivative lipoxygenase inhibitors” (Abbott Laboratories, priority 1990, dated 1992)

Tests used:
leukotriene biosynthesis = test: Inhibition of leukotriene biosynthesis in vivo after oral administration, rat peritoneal anaphylaxis model; settings: 100 μmol/kg oral (gavage), 1 h before antigen challenge, read-out: % Inhibition of Leukotrienes at 100 μmol/kg oral dose
Experimental: Inhibition of the biosynthesis of leukotrienes in vivo after oral administration of representative test compounds of this invention was determined using a rat peritoneal anaphylaxis model in a similar manner as that described by Young and coworkers (Young, P. R.; Dyer, R. D.; Carter, G. W. Fed. Proc., Fed. Am. Soc. Exp. Biol. 1985, 44, 1185). In this model rats were injected intraperitoneally (ip) with rabbit antibody to bovine serum albumin (BSA) and three hours later injected ip with BSA to induce an antgen-antibody response. Rats were sacrificed 15 minutes after this challenge and the peritoneal fluids were collected and analyzed for leukotriene levels. Test compounds were administered by gavage one hour prior to the antigen challenge. Percent inhibition values were determined by comparing the treatment group to the mean of the control group. The results of this assay, for representative compounds of the present invention, at an oral dose level of […] are presented in Table 2, and at an oral dose of […] in Table 3.

[1] = system: LTB4 biosynthesis in human whole blood; test: Inhibition of calcium ionophore-induced LTB4 biosynthesis in human whole blood; format: cell-based; settings: A23187 50 μM, 15 min preincubation, read-out: Inhibition of Leukotriene Biosynthesis IC50

## Cc1ccc(Oc2cccc([C@@H]3C[C@H]3C(C)N(O)C(N)=O)c2)cc1 (stereo partly drawn) [Example 180, N-(1-trans-(2-(3-(4-methylphenoxy)phenyl)cyclopropyl)ethyl)-N-hydroxyurea]
Leukotriene biosynthesis
  inhibition in vivo at 100 µmol/kg: 85%
[1]
  IC50: 690 nM

## CCc1ccc(Oc2cccc([C@@H]3C[C@H]3CN(O)C(N)=O)c2)cc1 (relative stereo) [Example 176, N-(1-trans-(2-(3-(4-ethylphenoxy)phenyl)cyclopropyl)methyl)-N-hydroxyurea]
Leukotriene biosynthesis
  inhibition in vivo at 100 µmol/kg: 87%
[1]
  IC50: 170 nM

## NC(=O)N(O)C[C@@H]1C[C@H]1c1cccc(Oc2nccs2)c1 (relative stereo) [Example 166, N-(1-trans-(2-(3-(2-thiazolyloxy)phenyl)cyclopropyl)methyl)-N-hydroxyurea]
Leukotriene biosynthesis
  inhibition in vivo at 100 µmol/kg: 91%
[1]
  IC50: 110 nM

## NC(=O)N(O)C[C@@H]1C[C@H]1c1ccsc1 (relative stereo) [Example 188, N-(1-trans-(2-(3-thienyl)cyclopropyl)methyl)-N-hydroxyurea]
Leukotriene biosynthesis
  inhibition in vivo at 100 µmol/kg: 97%
[1]
  IC50: 320 nM

## CC([C@@H]1C[C@H]1c1ccoc1)N(O)C(N)=O (stereo partly drawn) [Example 192, N-(1-trans-(2-(3-furanyl)cyclopropyl)ethyl)-N-hydroxyurea]
Leukotriene biosynthesis
  inhibition in vivo at 100 µmol/kg: 71%
[1]
  IC50: 1200 nM

## NC(=O)N(O)C[C@@H]1C[C@H]1c1ccco1 (relative stereo) [Example 198, N-(1-trans-(2-(2-furanyl)cyclopropyl)methyl)-N-hydroxyurea]
Leukotriene biosynthesis
  inhibition in vivo at 100 µmol/kg: 90%
[1]
  IC50: 970 nM
